Reference: patent US4959362A, “Pharmaceutical compositions containing certain ascorbic acid derivatives useful in the prophylaxis and treatment of disorders of the circulatory system” (Takeda Chemical Industries, Inc., priority 1983, dated 1990)

Key:
[1] = system: renal disorders due to Fe^3+ -nitrilotriacetate (NTA); assay: Effects on renal disorders in rats due to Fe^3+ nitrilotriacetate (NTA); type: in vivo, rat (male SLC-Wistar); details: 30 mg/kg orally
Experimental: Effects to alleviate renal disorders in rats due to Fe^3+ nitrilotriacetate:
Male SLC-Wistar rats (4-weeks old, 64~85 g) were used. The animals were housed individually in metabolism cages and allowed free access to feed and water. Body weight, volume of urine and protein in urine (BIO-RAD method) were determined every day, and occult blood reaction was also examined (Labstick method). On the last day of the experiment, the kidney was excised and weighed.
The animals were orally administered once daily with test drugs or vehicles thereof (suspension in gum arabic), and, 40~60 minutes later, were injected intraperitoneally with nitrilotriacetate (NTA) or Fe^3+ -NTA. Fe^3+ -NTA was used in a form of mixture (1:4, molar ratio), and the dosages were 5 mg/kg in terms of Fe^3+ for 3 days and successively 10 mg/kg for 5 days.
Test drugs were compound (1-12), vitamin C and vitamin E, and the dosages were all 30 mg/kg.

[2] = system: ischemic convulsive seizure (bilateral common carotid artery ligation); assay: Inhibition of ischemic seizure due to ligation of bilateral common carotid arteries in SHR rats; type: in vivo, rat (male SHR)
Experimental: Inhibition of ischemic seizure due to ligation of bilateral common carotid arteries in SHR rats
Male SHR rats (22-weeks old, about 360 g) were used. Under light anesthesia with ether, the animals were subjected to midline incision at the neck and the bilateral common carotid arteries were singled, then ligated to cause cerebral ischemia. […] The animals were orally administered with test drugs as a gum arabic suspension 60 minutes before the ligation of the bilateral common carotid arteries.

[3] = system: lipid peroxide formation in rat brain tissue homogenate; assay: Inhibition of lipid peroxide formation in rat brain tissue homogenate (TBA method); type: biochemical, rat (male SD); details: 10^-5 M
Experimental: Activity to inhibit lipid peroxide formation in rat brain tissue homogenate:
Male SD rats (12-weeks old) were subjected to exsanguination under anesthesia with pentobarbital, then the brain was excised. The brain tissue was homogenized in a phosphate buffer solution (pH 7.4) to prepare a 5% homogenate. After incubation of the homogenate at 37° C. for 1 hour, the amount of lipid peroxides formed therein was determined by thiobarbituric acid (TBA) method in accordance with the report of Ohkawa et al. on Analytical Biochemistry 95 351, 1979.
The test drug was added to the 5% homogenate before incubation so as to make the final concentration be 10^-5 M. The activity to inhibit the formation of lipid peroxides was compared with that of the reference group to which was added the solvent (DMSO), and shown by % inhibition.

[4] = system: ventricular arrhythmias after coronary artery occlusion-reperfusion in rat hearts; assay: Inhibition of ventricular arrhythmias during coronary artery occlusion-reperfusion in rat hearts; type: in vivo, rat (male SD); details: for Ventricular fibrillation Duration / Ventricular tachycardia Duration: average ±SEM
Experimental: Action to inhibit ventricular arrhythmias occurred during coronary artery occlusion-reperfusion in rat hearts
Male SD rats (9~13 - weeks old, 250~370 g) were used. The animals were subjected to thoractonomy under artificial respiration while anesthesia was maintained by administering pentobarbital. […] By recording standard limb lead II electrocardiograms, occurrence of ventricular arrhythmias was examined.
The animals were administered, under non-anesthesia, with test drugs as a gum arabic suspension at the dosage of 30 mg/kg at the time of about 90 minutes and of 20 mg/kg at the time of about 45 minutes (total: 50 mg/kg), or at the dosage of 10 mg/kg each (total: 20 mg/kg) at the time of about 90 minutes and about 45 minutes prior to closure of the coronary artery. The results are shown in Table 4 in terms of the total amount of the dosage.
Incidences of ventricular fibrillation and ventricular tachycardia are shown by the percentage of the number of animals presenting the symptoms relative to the number of animals subjected to the test, and the duration of the symptoms was shown in average ±SEM by seconds. Extrasystole is shown by the number of systole/min, and the mortality is shown by the percentage of the number of animals killed relative to the number of animals subjected to the test.

[5] = system: mice; assay: Acute toxicity in mice; type: in vivo; details: 300 and 1000 mg/kg orally
Experimental: Male Crj-ICR mice (4-weeks old, 21~26 g) were used. The animals, divided into groups, each consisting of six mice, were administered orally with compound (1-12) at the dosage of 300 or 1000 mg/kg. Then, each group was housed in a cage, and observed for 24 hours. The test drugs were suspended in gum arabic, and administered at the volume of 0.1 ml/10 g.

[6] = Oxidation inhibitory activity: reduction of a stable free radical (DPPH); type: biochemical; details: 20 minutes; 0.1 mM DPPH ethanol solution; 517 nm
Experimental: Oxidation inhibitory activity determined with the use of a stable radical: In accordance with the method of M. S. Brois [Nature, 181, 1199, 1958], the activity to reduce a stable free radical, α,α-diphenyl-β-picryl hydrazyl (DPPH), was determined, which was used as an index of the oxidation inhibitory activity. […] Then, 20 minutes later, the absorbance at a wavelength of 517 nm was measured with the use of a spectrophotometer.

[7] = n = 6, last day of the experiment
[8] = 100 mg/kg p.o., within 180 minutes

## CCCCCCCCCCCCCCCCCCOC1=C(O)[C@@H]([C@@H](O)CO)OC1=O [Compound (1-12), 2-O-octadecylascorbic acid]
[1]
  Effect on renal disorders: renal disorders were alleviated
  occult blood detection: only in half of the test animals, occult blood was detected
  urine volume and urinary protein compared with vehicle: significatly less
  weight of kidney compared with vehicle: significantly less
[1]; [7]
  Body Weight: 95.5 ± 3.0 g
  Kidney Weight: 56.5 ± 2.0 mg
  Occult Blood Test (positive animals/animals): 3/6
  Protein in urine: 8.1 ± 2.1 mg/day
  Volume of urine: 7.4 ± 1.3 mL/day
[2]; 100 mg/kg orally, versus vehicle
  delay of appearance of the convulsion: about 40 minutes
[2]; 100 mg/kg p.o., n = 5
  Ischemic convulsive seizure Time: 199 min
[2]; [8]
  Ischemic convulsive seizure Incidence (%): 20%
  Ischemic convulsive seizure Incidence (animals): 1/5
[3]
  Activity on lipid peroxide formation: higher activity
[3]; n = 3, mean ± standard error, 37° C., 1 hour
  Inhibitory Effect (%) on lipid peroxide formation: 88.6 ± 6.8%
[4]; 20 mg/kg total, oral
  Extrasystole: 3.3 ± 0.8 systole/min
  Mortality (animals): 1/17
  Mortality (percentage): 6 percentage
  Ventricular fibrillation Incidence (animals): 9/17
  Ventricular fibrillation Incidence (percentage): 53 percentage
  Ventricular tachycardia Incidence (animals): 11/17
  Ventricular tachycardia Incidence (percentage): 65 percentage
  Ventricular fibrillation Duration: 31.0 ± 28.2 s
  Ventricular tachycardia Duration: 10.2 ± 3.2 s
[4]; 50 mg/kg total, oral
  Extrasystole: 1.1 ± 0.3 systole/min
  Mortality (animals): 0/9
  Mortality (percentage): 0 percentage
  Ventricular fibrillation Incidence (animals): 2/9
  Ventricular fibrillation Incidence (percentage): 22 percentage
  Ventricular tachycardia Incidence (animals): 2/9
  Ventricular tachycardia Incidence (percentage): 22 percentage
  Ventricular fibrillation Duration: 1.2 ± 0.8 s
  Ventricular tachycardia Duration: 3.2 ± 2.6 s
[4]; 20 and 50 mg/kg
  frequency of occasional PVCs: less significantly
  mortality due to VF: low
  period of time during which the symptom lasted: shortened
[4]; 20 and 50 mg/kg of compound (1-12), 50 mg/kg of vitamin C or E, oral
  occurrence of ventricular arrhythmias: suppressed significantly and depending on the dosages
[5]
  recovery from sedation and ptosis: ≤ 3 h
  state observed: the state of sedation and ptosis were observed
[5]; 24-hour-observation
  lethality: no test animals of either group were killed
[6]
  concentration at which DPPH is reduced in a manner dependent upon the amount used: not less than 10^-5 M
